Consider four compounds from patent US5277897A, “In vivo enhancement of cellular accumulation of lipophilic cationic organometallic compounds by reduction of intramembrane potential” (Brigham and Women's Hospital, priority 1992, dated 1994).

For one series, the system named is perfused rabbit heart. The following applies: ouabain 1.5×10^-6 M; cited from earlier work.
For series [1], the system named is cultured chick heart cells. The series can be described thus: Effect of 8-anilino-1-naphthalene sulfonic acid on net uptake of Tc-MIBI in cultured chick heart cells (FIG. 9). The format is cell-based. Conditions: Gallus gallus, 0.5 h; 8-ANS 10^-4 M, within 30 minutes; read-out: net uptake of Tc-MIBI enhanced over the control. As for the experimental part:
FIG. 9. Effect of 8-anilino-1-naphthalene sulfonic acid on net uptake of Tc-M1B1 in cultured chick heart cells. Preparations were incubated for the times indicated in Tc-MIBI loading buffer in the absence (.quadrature.) and presence of 8-ANS ( , 10^-7 M; , 10^-4 M). Each point represents the mean ±SEM of 3-4 determinations.
(§1) Monolayers of spontaneously contractile chick ventricular myocardial cells were obtained from disaggregated 10-day old chick embryo hearts by a slight modification of previously published methods (Horres, C. R., et al., In Pinson, A. (ed.), The Heart Cell in Culture, Boca Raton, CRC Press, pp. 77-108 (1987)). Hearts were trimmed of connective tissue and atria, finely minced and serially exposed to 0.024% (w/v) trypsin in Ca^2+ - and Mg^2+ - free Earle's salt solution for 7 minutes at 37° C. Gentle trituration and agitation on an orbital shaker bath aided disaggregation. Cells released from the first exposure were discarded and cells aspirated from the next four exposures were then added to an equal volume of trypsin deactivating solution consisting of ice-cold culture medium. Cells were centrifuged at 400 g for 10 minutes, resuspended and combined in culture medium, counted with a hemocytometer and diluted to yield a suspension of 5×10^5 cells/ml. […]

A further series concerns cells and mitochondria. Conditions: typical loading activities; cited from earlier work.
The subject of series [2] is cultured chick heart cells. The series is described as follows: Concentration-effect curve for TPB enhancement of 2-minute uptake of Tc-MIBI (FIG. 2). The series is classed as cell-based. As for the experimental part:
FIG. 2. Concentration-effect curve for TPB enhancement of 2-minute uptake of Tc-MIBI. Preparations were pre-incubated for 1 minute in control MEBSS buffer containing TPB at the indicated concentrations prior to determination of tracer Tc-MIBI uptake in the continued presence of TPB. Each point represents the mean ±SEM of 3 determinations.
as §1

The subject of series [3] is cultured chick heart cells. The series can be described thus: Effect of TPB on net accumulation of Tc-MIBI in cultured chick heart cells (FIG. 1). The format is cell-based. Conditions: TPB 10^-5 M; P <0.001. Here is the method: FIG. 1. Effect of TPB on net accumulation of Tc-MIBI in cultured chick heart cells. Preparations were incubated for the times indicated in Modified Earle's Basic Salt Solution (MEBSS) control buffer containing tracer Tc-MIBI alone (.quadrature.) and with various concentrations of tetraphenylborate: ( ) 10^-9 M; ( ) 5×10^-7 M; (·) 10^-5 M. Results are expressed as fmol cellular Tc-MIBI/mg protein per nM extracellular Tc MIBI. Each point represents the mean ±SEM of 3 determinations.
Control buffer was a modified Earle's balanced salt solution (MEBSS) with the following composition (mN) Na^30, 145; K^+, 5.4; Ca^2, 1.2; Mg^2+, 0.8; Cl, 152; H2 PO4, 0.8; SO4^2-, 0.8; dextrose, 5.6; HEPES, 4.0; and bovine calf serum, 1% (v/v); pH 78.4±0.05; 37° C. […]
Monolayers of spontaneously contractile chick ventricular myocardial cells were obtained from disaggregated 10-day old chick embryo hearts by a slight modification of previously published methods (Horres, C. R., et al., In Pinson, A. (ed.), The Heart Cell in Culture, Boca Raton, CRC Press, pp. 77-108 (1987)). […] Cells were centrifuged at 400 g for 10 minutes, resuspended and combined in culture medium, counted with a hemocytometer and diluted to yield a suspension of 5×10^5 cells/ml. […]

Series [4] can be described thus: Effect of tetraphenylborate on the biodistribution of Tc-MIBI in rats (Table 2). The format is in vivo. Conditions: TPB vs no TPB. As for the experimental part:
The results are expressed as percent injected dose per gram of tissue. […] For this series of experiments, 50 microliters of dimethylsulfoxide lacking or containing 7.2 mM TPB were injected directly into the jugular vein of anesthetized rats immediately prior to the injection of Tc-MIBI (150 microliters; 100 microCuries per 200 microliters).
After 15 minutes, the animal was sacrificed by thoracotomy, organs extracted and placed in test tubes and counted for radioactivity in a standard well-type gamma counter. Tissue wet weights were obtained by subtracting fare weights from total weight of test tubes plus tissue.
Results are expressed as mean ±SEM of three determinations each.

A further series deals with cultured heart cells. The series is described as follows: TPB toxicity at high concentration in cultured heart cells. The following applies: TPB 10^-4 M. The series is classed as cell-based, chick.
Series [5] has as its system cultured chick heart cells. The series can be described thus: Influence of TPB and CCCP on (membrane potential-independent) accumulation of Tc-MIBI (FIG. 4). The series is classed as cell-based. The following applies: TPB; CCCP. Here is the method: FIG. 4. […] Preparations were incubated for the times indicated in 5.4 mM Ko control loading buffer containing tracer Tc-MIBI and TPB together (Δ) or in loading buffer containing Tc-MIBI alone (.quadrature.). For the latter incubation, TPB was added to the loading buffer at the arrow and cell content of Tc-MIBI subsequently determined (o). Under each condition, CCCP was added to the loading buffers as indicated by the arrows and cell content of Tc-MIBI determined ( , , ·). Each point is the mean ±SEM of 3 determinations.
Monolayers of spontaneously contractile chick ventricular myocardial cells were obtained from disaggregated 10-day old chick embryo hearts by a slight modification of previously published methods (Horres, C. R., et al., In Pinson, A. (ed.), The Heart Cell in Culture, Boca Raton, CRC Press, pp. 77-108 (1987)). Hearts were trimmed of connective tissue and atria, finely minced and serially exposed to 0.024% (w/v) trypsin in Ca^2+ - and Mg^2+ - free Earle's salt solution for 7 minutes at 37° C. Gentle trituration and agitation on an orbital shaker bath aided disaggregation. Cells released from the first exposure were discarded and cells aspirated from the next four exposures were then added to an equal volume of trypsin deactivating solution consisting of ice-cold culture medium. Cells were centrifuged at 400 g for 10 minutes, resuspended and combined in culture medium, counted with a hemocytometer and diluted to yield a suspension of 5×10^5 cells/ml. 12 ml of suspension were incubated in 100 mm plastic culture dishes containing 7 coverslips (25 mm diameter) placed on the bottom of each dish to serve as substrate for cell growth. Cells were maintained in a humidified atmosphere of 5% CO2 /95% air for 3-4 days yielding a confluent layer of spontaneously contractile myocytes on each coverslip.
Radioactive uptake methods have been described in detail (Piwnica-Worms, D., et al, Circ. (in press). Briefly, coverslips with confluent cells were removed from culture media and pre-equilibrated for 40-60 seconds in MEBSS buffer. Uptake and retention experiments were initiated by immersion of coverslips in 60 mm glass Pyrex dishes containing loading solution consisting of buffer with 0.1-0.6 nM [^99m Tc-MIBI] (0.01-0.4 Ci/nmole; 25-100 uCi/ml). Preparations were removed at various times and rinsed three times in 25 ml volumes of ice-cold (2° C.) isotope-free buffer for 8 seconds each to clear extracellular spaces. Preparations and aliquots of the loading buffer and stock solutions were counted in a well-type sodium iodide gamma counter after which cell protein on each coverslip was extracted in 1% sodium dodecylsulfate with 10 mM sodium borate and assayed by the method of Lowry (Lowry, O. H., et al., J. Biol. Chem. 193:265-275 (1951)). Tc-MIBI binding to glass coverslips without cells was used as an estimate of non-specific adhesion to the substrate ([…] obtained with cellular preparations); this value was subtracted from total uptake determinations to derive the cell-associated counts. Use of generator equilibrium equations (Lamson, M. L., et al., i J. Nucl. Med. 16:639-641 (1975)) allowed calculation of absolute moles of Tc-MIBI in solutions and preparations. Results were therefore expressed as fmol cellular Tc-MIBI/mg protein per nM extracellular Tc-MIBI concentration. […]

As to `CC1OC(OC2CC(O)C3(CO)C4C(O)CC5(C)C(C6=CC(=O)OC6)CCC5(O)C4CCC3(O)C2)C(O)C(O)C1O` (stereo not shown) [oaubain], the “net tissue extraction of Tc-MIBI” value in the series on perfused rabbit heart is listed as “alter net tissue extraction of Tc-MIBI”.

For the compound `O=S(=O)(O)c1cccc2cccc(Nc3ccccc3)c12` [8-anilino-1-naphthalene sulfonic acid], the activation at 100 µM in series [1] came out at 25%.

With `c1ccc([P+](c2ccccc2)(c2ccccc2)c2ccccc2)cc1` [TPP^+, tetraphenylphosphonium], the “toxic effects on mitochondrial function” value in the series on cells and mitochondria is “toxic effects on mitochondrial function”.

Take `c1ccc([B-](c2ccccc2)(c2ccccc2)c2ccccc2)cc1` [TPB, tetraphenylborate]: the “myocellular uptake of Tc-MIBI increased in a concentration-dependent manner up to” value in series [2] is given as “up to 3×10^-5 M”. Further, in series [2] (Gallus gallus, 1 minute pre-incubation with TPB, read-out: half-maximal concentration for TPB enhancement of myocellular uptake of Tc-MIBI), the EC50 was 3000 nM. Besides, the “peak accumulation of Tc-MIBI, greater than control” value in series [3] stood at 4 fold. In series [4], the “Tc-MIBI accumulation in liver, kidney, lung and blood” value is on record as “significant increase in Tc-MIBI accumulation within the tissues”; the “increase in tissue retention of Tc-MIBI, all tissues” value came out at 50%. In the series with cultured heart cells, the “enhancement of Tc-MIBI accumulation / cellular toxicity” value was “relatively less enhancement of Tc-MIBI accumulation compared to moderate TPB concentrations suggesting cellular toxicity”. Moreover, in series [5], the “residual CCCP-insensitive Tc-MIBI content, of the TPB-enhanced Tc-MIBI content” value amounted to 13%.
